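Test compounds were applied to cells in 96-well plates for 48 hours at 5 doses. GI50 marks 50% less growth.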 Calls of active or inactive are those of the source. No stated cut-off is given here; in the data, active = GI50 up to about 1.1 µM and inactive = higher. Residues, ends and D or L forms follow the SMILES beside them. *: point of attachment. Bn = c1ccc(C*)cc1
Tests used:
Test in all cases: NCI-60 cell line screen, 48 h
MOLT-4 = test system: MOLT-4
NCI-H23 = test system: NCI-H23
KM12 = test system: KM12
A498 = test system: A498
OVCAR-8 = test system: OVCAR-8
MDA-N = test system: MDA-N
T47D = test system: T47D
NCI/ADR-RES = test system: NCI/ADR-RES
EKVX = test system: EKVX
HOP-92 = test system: HOP-92
OVCAR-3 = test system: OVCAR-3
CAKI-1 = test system: CAKI-1
SF-268 = test system: SF-268
MDA-MB-435 = test system: MDA-MB-435
UACC-62 = test system: UACC-62
COLO 205 = test system: COLO 205
SK-MEL-5 = test system: SK-MEL-5
MDA-MB-231 = test system: MDA-MB-231
RXF 393 = test system: RXF 393
U-251 = test system: U-251

SMILES | GI50 (MOLT-4) | GI50 (NCI-H23) | GI50 (KM12) | GI50 (A498) | GI50 (OVCAR-8) | GI50 (MDA-N) | GI50 (T47D) | GI50 (NCI/ADR-RES) | GI50 (EKVX) | GI50 (HOP-92) | GI50 (OVCAR-3) | GI50 (CAKI-1) | GI50 (SF-268) | GI50 (MDA-MB-435) | GI50 (UACC-62) | GI50 (COLO 205) | GI50 (SK-MEL-5) | GI50 (MDA-MB-231) | GI50 (RXF 393) | GI50 (U-251)
CCCC1c2c(ccc3ccccc23)Oc2ccc3ccccc3c21 | 37.6 µM (inactive) | 60.4 µM (inactive) | 39.3 µM (inactive) | 23.7 µM (inactive) | > 100 µM (inactive) | 39.6 µM (inactive) | 14.6 µM (inactive) | 94 µM (inactive) | 33.5 µM (inactive) | > 100 µM (inactive) | 61.4 µM (inactive) | > 100 µM (inactive) | 79.8 µM (inactive) | 41.4 µM (inactive) | 84.9 µM (inactive) | 41.9 µM (inactive) | 34.7 µM (inactive) | 31.7 µM (inactive) | 29.1 µM (inactive) | 40.2 µM (inactive)
CCN(CC)CC(C)(C)C(=O)/C=C/c1ccc(/C=C/C(=O)C(C)(C)CN(CC)CC)cc1 | 0.14 µM (active) | 0.991 µM (active) | 0.879 µM (active) | 1.7 µM (inactive) | 0.259 µM (active) | 0.44 µM (active) | 0.587 µM (active) | 1.09 µM (active) | 1.63 µM (inactive) | 0.397 µM (active) | 0.533 µM (active) | 0.733 µM (active) | 0.512 µM (active) | 0.897 µM (active) | 1.46 µM (inactive) | 0.339 µM (active) | 1.54 µM (inactive) | 0.206 µM (active) | 0.233 µM (active) | 0.469 µM (active)
COc1ccc(/C=C\c2cc(OC)c(OC)c(OC)c2)cc1OC | 0.194 µM (active) | 0.216 µM (active) | 0.0957 µM (active) | 0.236 µM (active) | 0.153 µM (active) | 0.0165 µM (active) | 22.2 µM (inactive) | 0.222 µM (active) | 0.188 µM (active) | 9.66 µM (inactive) | 0.0916 µM (active) | 0.156 µM (active) | 0.298 µM (active) | 0.0184 µM (active) | 0.197 µM (active) | 0.0767 µM (active) | 0.207 µM (active) | 0.472 µM (active) | 0.121 µM (active) | 0.117 µM (active)
O=C(O)C1CC(c2ccc(F)cc2)=Nc2ccc(F)cc2S1 (stereo not given) | > 100 µM (inactive) | > 100 µM (inactive) | > 100 µM (inactive) | > 100 µM (inactive) | > 100 µM (inactive) | > 100 µM (inactive) | > 100 µM (inactive) | > 100 µM (inactive) | > 100 µM (inactive) | > 100 µM (inactive) | > 100 µM (inactive) | > 100 µM (inactive) | > 100 µM (inactive) | > 100 µM (inactive) | > 100 µM (inactive) | > 100 µM (inactive) | > 100 µM (inactive) | > 100 µM (inactive) | > 100 µM (inactive) | > 10 µM (inactive)
OC1=C2c3ccccc3NC2Oc2cc(F)ccc21 (stereo not given) | 13.6 µM (inactive) | 12.9 µM (inactive) | 15.4 µM (inactive) | 15.3 µM (inactive) | 27 µM (inactive) | 15.8 µM (inactive) | 19.2 µM (inactive) | 16.2 µM (inactive) | 3.6 µM (inactive) | 18 µM (inactive) | 11.9 µM (inactive) | 19.5 µM (inactive) | 18.2 µM (inactive) | 17.1 µM (inactive) | 15.7 µM (inactive) | 14.5 µM (inactive) | 15 µM (inactive) | 16.1 µM (inactive) | 16.6 µM (inactive) | 15.7 µM (inactive)
CCOC(=O)C1=C(C)N(Cc2ccccc2)C2(O)C=CC(O)=C3C(=O)c4ccccc4C(=O)C312 (stereo not given) | 8.15 µM (inactive) | 8.61 µM (inactive) | 12.1 µM (inactive) | 23.6 µM (inactive) | 19.1 µM (inactive) | 6.37 µM (inactive) | 18.9 µM (inactive) | 0.182 µM (active) | 16.4 µM (inactive) | 17.2 µM (inactive) | 7.67 µM (inactive) | 12.1 µM (inactive) | 10.1 µM (inactive) | 8.93 µM (inactive) | 14.7 µM (inactive) | 16.8 µM (inactive) | 10.3 µM (inactive) | 15.3 µM (inactive) | 3.37 µM (inactive) | 16.6 µM (inactive)
CC(Br)CN(CC(C)Br)c1ccc2c(c1)Cc1ccccc1-2 (stereo not given) | 2.34 µM (inactive) | 12 µM (inactive) | 16.5 µM (inactive) | 13 µM (inactive) | 9.98 µM (inactive) | 15.2 µM (inactive) | 10.1 µM (inactive) | 13.5 µM (inactive) | 13.8 µM (inactive) | 7.62 µM (inactive) | 11.7 µM (inactive) | 9.2 µM (inactive) | 10.2 µM (inactive) | 13.7 µM (inactive) | 11.9 µM (inactive) | 14.5 µM (inactive) | 12.7 µM (inactive) | 13.9 µM (inactive) | 14.3 µM (inactive) | 10.7 µM (inactive)
CN(C)c1ccc(/C=C/C=C(/C#N)c2ccccc2)cc1 | 11.8 µM (inactive) | 36.9 µM (inactive) | 4.8 µM (inactive) | 24.3 µM (inactive) | 33 µM (inactive) | 1.94 µM (inactive) | 9.57 µM (inactive) | 6.92 µM (inactive) | 55.2 µM (inactive) | 78.7 µM (inactive) | 9.91 µM (inactive) | 33.5 µM (inactive) | 37.3 µM (inactive) | 2 µM (inactive) | 19.2 µM (inactive) | 20.4 µM (inactive) | 14.5 µM (inactive) | 37.8 µM (inactive) | 36.8 µM (inactive) | 17.1 µM (inactive)
C[C@]12CC[C@H]3[C@@H](CC=C4C[C@@H](O)CC[C@@]43C)[C@@H]1C/C(=C/c1ccccc1)[C@@H]2O | > 32.7 µM (inactive) | 15.9 µM (inactive) | 23 µM (inactive) | 17.2 µM (inactive) | 20.9 µM (inactive) | 20.1 µM (inactive) | > 22 µM (inactive) | 17.7 µM (inactive) | 11.8 µM (inactive) | 32.4 µM (inactive) | 16 µM (inactive) | 30.3 µM (inactive) | 29.3 µM (inactive) | > 46 µM (inactive) | 17.8 µM (inactive) | > 53.6 µM (inactive) | 12.1 µM (inactive) | 43.1 µM (inactive) | > 25.1 µM (inactive) | > 35.9 µM (inactive)
CC(O)c1cc2c(s1)C(=O)c1scc(C(C)O)c1C2=O (stereo not given) | 0.753 µM (active) | 0.191 µM (active) | 1.79 µM (inactive) | 2.2 µM (inactive) | 0.286 µM (active) | 0.186 µM (active) | 1.95 µM (inactive) | 0.283 µM (active) | 0.991 µM (active) | 1.96 µM (inactive) | 0.393 µM (active) | 1.01 µM (active) | 0.28 µM (active) | 0.175 µM (active) | 0.245 µM (active) | 1.91 µM (inactive) | 0.156 µM (active) | 0.316 µM (active) | 0.881 µM (active) | 0.419 µM (active)
COC(=O)C(CC(C)C)NC(=O)C(N)Cc1ccc(OCc2ccccc2)cc1 (stereo not given) (H-Tyr(Bn)-Leu-OMe; configuration not given here) | > 10 µM (inactive) | > 10 µM (inactive) | > 10 µM (inactive) | > 10 µM (inactive) | > 10 µM (inactive) | > 10 µM (inactive) | > 10 µM (inactive) | > 10 µM (inactive) | > 10 µM (inactive) | > 10 µM (inactive) | > 10 µM (inactive) | > 10 µM (inactive) | > 10 µM (inactive) | > 10 µM (inactive) | > 10 µM (inactive) | > 10 µM (inactive) | > 10 µM (inactive) | > 10 µM (inactive) | > 10 µM (inactive) | > 10 µM (inactive)
NC(Cc1ccccc1)C(=O)O (stereo not drawn) [DL-PHENYLALANINE] | > 100 µM (inactive) | > 100 µM (inactive) | > 100 µM (inactive) | > 100 µM (inactive) | > 100 µM (inactive) | > 100 µM (inactive) | > 100 µM (inactive) | > 100 µM (inactive) | > 100 µM (inactive) | > 100 µM (inactive) | > 100 µM (inactive) | > 100 µM (inactive) | > 100 µM (inactive) | > 100 µM (inactive) | > 100 µM (inactive) | > 100 µM (inactive) | > 100 µM (inactive) | > 100 µM (inactive) | > 100 µM (inactive) | > 100 µM (inactive)
